Test results from patent publication US9346809B2 (LEO PHARMA A/S, priority 2009, dated 2016).
pEC50: −log10 of the molar value. Where two headings read alike, the source gives them in different places.

Tests used:
Type in all cases: biochemical
[1] = target: T1, JAK3 (catalytic domain, His-tag) (Homo sapiens, UniProt P52333); test: JAK kinase assay (HTRF, phosphorylation of TK substrate-biotin), JAK3; conditions: ATP at Km (2 μM)
T1 construct: All four purified enzymes contain only the catalytic domain; His (N); purchased Carna Biosciences, Inc; host or cells: baculovirus expression system
T1 sequence (P52333 822-1111 limits assumed): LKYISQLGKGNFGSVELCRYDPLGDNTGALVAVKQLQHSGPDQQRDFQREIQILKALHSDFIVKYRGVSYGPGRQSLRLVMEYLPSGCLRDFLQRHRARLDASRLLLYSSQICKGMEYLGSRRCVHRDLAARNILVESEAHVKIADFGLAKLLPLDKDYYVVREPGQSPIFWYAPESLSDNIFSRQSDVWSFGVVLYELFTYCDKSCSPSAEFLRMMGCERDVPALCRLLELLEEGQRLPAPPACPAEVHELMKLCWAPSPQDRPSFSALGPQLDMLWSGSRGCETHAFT
Description: (§1) Human baculovirus-expressed JAK1, 2, 3 and TYK2 were purchased from Carna Biosciences, Inc. All four purified enzymes contain only the catalytic domain. JAK1 (aa 850-1154) and TYK2 (aa 871-1187) are expressed with an N-terminally fused GST-tag, and JAK2 and JAK3 with an N-terminally fused His-tag.
(§2) Inhibition of phosphorylation of a synthetic peptide was measured in an HTRF-based assay using the TK substrate-Biotin from the Cisbio HTRFKinEASE TK kit. First, 2 μl of TK solution (TK substrate-biotin in kinase buffer [1× enzymatic buffer from HTRFKinEASE TK kit, 1 mM DTT]) is added to a plate containing 1 μl prediluted compound (final assay concentration DMSO: 0.75%). Then, 5 μl kinase-ATP mix (prepared in kinase buffer) is added to the wells and the plates are incubated at RT for 20-30 min. For all four kinases a concentration of ATP that corresponded to the Km for ATP was used. The final concentrations of buffers, substrate, kinase and ATP were: JAK1: 50 mM Hepes buffer pH 7.0, 0.01% BSA, 10 mM MgCl2, 1 mM DTT, 7 μM ATP, 50 nM SEB, 1 μM TK Substrate-Biotin and 5 ng JAK1; JAK2: 50 mM Hepes buffer pH 7.0, 0.01% BSA, 5 mM MgCl2, 1 mM DTT, 4 μM ATP, 1 μM TK Substrate-Biotin and 0.1 ng JAK2; JAK3: 50 mM Hepes buffer pH 7.0, 0.01% BSA, 5 mM MgCl2, 1 mM DTT, 2 μM ATP, 1 μM TK Substrate-Biotin and 0.3 ng JAK3; TYK2: 50 mM Hepes buffer pH 7.0, 0.01% BSA, 5 mM MgCl2, 1 mM DTT, 13 μM ATP, 50 nM SEB, 1 μM TK Substrate-Biotin and 0.8 ng TYK2. Thereafter, the kinase reaction is stopped by adding 4 μl detection mix (final concentrations: 50 mM Hepes buffer pH 7.0, 0.01% BSA, 0.8 M KF, 20 mM EDTA, 42 nM Streptavidin-XL665 and 1:400 STK Ab Cryptate) and the plates are incubated overnight in the dark. The HTRF signal is read using an Envision plate reader.
(§3) In Table 1 selected JAK kinase inhibitory activities are listed with the following indicators: I: EC50<100 nM, II: 100 nM≦EC50≦500 nM and III: EC50>500 nM

[2] = target: T2, JAK2 (catalytic domain, His-tag) (Homo sapiens, UniProt O60674); test: JAK kinase assay (HTRF, phosphorylation of TK substrate-biotin), JAK2; conditions: ATP at Km (4 μM)
T2 construct: All four purified enzymes contain only the catalytic domain; His (N); purchased Carna Biosciences, Inc; host or cells: baculovirus expression system
T2 sequence (O60674 849-1124 limits assumed): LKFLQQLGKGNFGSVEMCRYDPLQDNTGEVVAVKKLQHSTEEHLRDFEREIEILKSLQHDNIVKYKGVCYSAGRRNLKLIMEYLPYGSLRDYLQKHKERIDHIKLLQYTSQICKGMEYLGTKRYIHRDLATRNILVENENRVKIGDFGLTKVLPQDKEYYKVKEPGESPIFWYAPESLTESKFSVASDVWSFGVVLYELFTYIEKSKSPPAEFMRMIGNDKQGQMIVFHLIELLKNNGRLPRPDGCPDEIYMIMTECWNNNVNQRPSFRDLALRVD
Description: as §1, §2, §3

[3] = target: T3, JAK1 (aa 850-1154, catalytic domain, GST-tag) (Homo sapiens, UniProt P23458); test: JAK kinase assay (HTRF, phosphorylation of TK substrate-biotin), JAK1; conditions: ATP at Km (7 μM)
T3 construct: JAK1 (aa 850-1154) and TYK2 (aa 871-1187) are expressed with an N-terminally fused GST-tag; GST (N); purchased Carna Biosciences, Inc; host or cells: baculovirus expression system
T3 sequence (P23458 850-1154): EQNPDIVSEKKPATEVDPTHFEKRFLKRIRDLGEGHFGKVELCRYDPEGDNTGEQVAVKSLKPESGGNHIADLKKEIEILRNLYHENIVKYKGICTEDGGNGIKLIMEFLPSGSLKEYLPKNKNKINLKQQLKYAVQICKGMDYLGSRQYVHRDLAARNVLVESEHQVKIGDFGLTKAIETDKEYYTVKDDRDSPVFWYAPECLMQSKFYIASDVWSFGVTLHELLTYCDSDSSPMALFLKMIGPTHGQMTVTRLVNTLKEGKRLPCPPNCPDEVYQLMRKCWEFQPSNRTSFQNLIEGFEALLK
Description: as §1, §2, §3

[4] = target: T4, TYK2 (aa 871-1187, catalytic domain, GST-tag) (Homo sapiens, UniProt P29597); test: JAK kinase assay (HTRF, phosphorylation of TK substrate-biotin), TYK2; conditions: ATP at Km (13 μM)
T4 construct: JAK1 (aa 850-1154) and TYK2 (aa 871-1187) are expressed with an N-terminally fused GST-tag; GST (N); purchased Carna Biosciences, Inc; host or cells: baculovirus expression system
T4 sequence (P29597 871-1187): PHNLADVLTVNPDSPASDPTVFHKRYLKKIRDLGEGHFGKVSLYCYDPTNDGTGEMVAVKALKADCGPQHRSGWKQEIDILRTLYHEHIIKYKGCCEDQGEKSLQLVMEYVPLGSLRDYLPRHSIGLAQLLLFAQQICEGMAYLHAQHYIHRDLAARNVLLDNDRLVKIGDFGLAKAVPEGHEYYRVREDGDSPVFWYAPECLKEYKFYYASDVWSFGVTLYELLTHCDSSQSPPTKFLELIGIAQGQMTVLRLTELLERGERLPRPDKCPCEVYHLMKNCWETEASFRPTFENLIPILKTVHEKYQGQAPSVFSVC
Description: as §1, §2, §3

[5] = read-out: JAK3 kinase inhibitory activity (EC50 indicator)
[6] = read-out: JAK2 kinase inhibitory activity (EC50 indicator)
[7] = read-out: JAK1 kinase inhibitory activity (EC50 indicator)
[8] = read-out: TYK2 kinase inhibitory activity (EC50 indicator)
[9] = HTRF assay, read-out: JAK3 kinase inhibitory activity (EC50 indicator)
[10] = HTRF assay, read-out: JAK2 kinase inhibitory activity (EC50 indicator)
[11] = HTRF assay, read-out: JAK1 kinase inhibitory activity (EC50 indicator)
[12] = HTRF assay, read-out: TYK2 kinase inhibitory activity (EC50 indicator)

SMILES	pEC50 [1, 5]	pEC50 [2, 6]	pEC50 [3, 7]	pEC50 [4, 8]	also measured
Cc1ccc(S(=O)(=O)N2CCN(c3ncnc4[nH]ccc34)CC23CC3)cc1 [Example 439, 4-[4-(Toluene-4-sulfonyl)-4,7-diazaspiro[2.5]oct-7-yl]-7H-pyrrolo[2,3-d]pyrimidine]					pEC50 ([1]; HTRF assay, read-out: JAK3 kinase inhibitory activity (EC50)): > 7.00; pEC50 ([2]; HTRF assay, read-out: JAK2 kinase inhibitory activity (EC50)): > 7.00; pEC50 ([3]; HTRF assay, read-out: JAK1 kinase inhibitory activity (EC50)): > 7.00; pEC50 ([4]; HTRF assay, read-out: TYK2 kinase inhibitory activity (EC50)): 6.30 to 7.00
Cc1c(C(=O)N2CCN(c3ncnc4[nH]ccc34)CC23CC3)[nH]c2ccc(F)cc12 [Example 185, (5-Fluoro-3-methyl-1H-indol-2-yl)-[7-(7H-pyrrolo[2,3-d]pyrimidin-4-yl)-4,7-diaza-spiro[2.5]oct-4-yl]-methanone]	< 6.30	6.30 to 7.00	6.30 to 7.00	< 6.30	
N#CCOc1ccc(C(=O)N2CCN(c3ncnc4[nH]ccc34)CC23CC3)cc1 [Example 68, {4-[7-(7H-Pyrrolo[2,3-d]pyrimidin-4-yl)-4,7-diaza-spiro[2.5]octane-4-carbonyl]-phenoxy}-acetonitrile]	6.30 to 7.00	> 7.00	> 7.00	6.30 to 7.00	
O=C(c1cccnc1)N1[C@@H]2CC[C@H]1CN(c1ncnc3[nH]ccc13)C2 [Example 57, Pyridin-3-yl-[3-(7H-pyrrolo[2,3-d]pyrimidin-4-yl)-3,8-diazabicyclo[3.2.1]oct-8-yl]methanone]	< 6.30	6.30 to 7.00	6.30 to 7.00	< 6.30	
CS(=O)(=O)c1ccc2[nH]c(C(=O)N3C4CCC3CN(c3ncnc5[nH]ccc35)C4)cc2c1 [Example 130, (5-Methanesulfonyl-1H-indol-2-yl)-[3-(7H-pyrrolo[2,3-d]pyrimidin-4-yl)-3,8-diaza-bicyclo[3.2.1]oct-8-yl]-methanone]	> 7.00	> 7.00	> 7.00	6.30 to 7.00	
CC(=O)OCC(=O)Nc1nc(N2CCN(C(=O)Cc3ccc(C#N)cc3)C3(CC3)C2)c2cc[nH]c2n1 [Example 100, Acetic acid (4-{4-[2-(4-cyano-phenyl)-acetyl]-4,7-diaza-spiro[2.5]oct-7-yl}-7H-pyrrolo[2,3-d]pyrimidin-2-ylcarbamoyl)-methyl ester]	> 7.00	> 7.00	> 7.00	6.30 to 7.00	
O=C(OCc1ccccc1)N1[C@@H]2CC[C@H]1CN(c1ncnc3[nH]ccc13)C2 [Example 58, 3-(7H-Pyrrolo[2,3-d]pyrimidin-4-yl)-3,8-diazabicyclo[3.2.1]octane-8-carboxylic acid benzyl ester]	6.30 to 7.00	> 7.00	> 7.00	< 6.30	
NS(=O)(=O)c1ccc(OCC(=O)N2CCN(c3ncnc4[nH]ccc34)CC23CC3)cc1 [Example 399, 4-{2-Oxo-2-[7-(7H-pyrrolo[2,3-d]pyrimidin-4-yl)-4,7-diaza-spiro[2.5]oct-4-yl]-ethoxy}-benzenesulfonamide]					pEC50 [1, 9]: > 7.00; pEC50 [2, 10]: > 7.00; pEC50 [3, 11]: > 7.00; pEC50 [4, 12]: > 7.00
COc1ncccc1C(=O)N1CCN(c2ncnc3[nH]ccc23)CC12CC2 [Example 216, (2-Methoxy-pyridin-3-yl)-[7-(7H-pyrrolo[2,3-d]pyrimidin-4-yl)-4,7-diaza-spiro[2.5]oct-4-yl]-methanone]					pEC50 [1, 9]: < 6.30; pEC50 [2, 10]: 6.30 to 7.00; pEC50 [3, 11]: 6.30 to 7.00; pEC50 [4, 12]: < 6.30
CC#CCOC(=O)N1CCN(c2ncnc3[nH]ccc23)CC12CC2 [Example 89, 7-(7H-Pyrrolo[2,3-d]pyrimidin-4-yl)-4,7-diaza-spiro[2.5]octane-4-carboxylic acid but-2-ynyl ester]	6.30 to 7.00	> 7.00	> 7.00	< 6.30	
O=C(c1cc2c(s1)CCC2)N1C2CCC1CN(c1ncnc3[nH]ccc13)C2 [Example 139, (5,6-Dihydro-4H-cyclopenta[b]thiophen-2-yl)-[3-(7H-pyrrolo[2,3-d]pyrimidin-4-yl)-3,8-diaza-bicyclo[3.2.1]oct-8-yl]-methanone]	6.30 to 7.00	> 7.00	> 7.00	< 6.30	
S=C(NCc1ccccc1)N1[C@@H]2CC[C@H]1CN(c1ncnc3[nH]ccc13)C2 [Example 11, 3-(7H-Pyrrolo[2,3-d]pyrimidin-4-yl)-3,8-diazabicyclo[3.2.1]octane-8-carbothioic acid benzylamide]	6.30 to 7.00	> 7.00	> 7.00	< 6.30	
O=C(c1cc2ccccc2s1)N1CCN(c2ccnc3[nH]ccc23)CC12CC2 [Example 82, Benzo[b]thiophen-2-yl-[7-(1H-pyrrolo[2,3-b]pyridin-4-yl)-4,7-diaza-spiro[2.5]oct-4-yl]-methanone]	< 6.30	6.30 to 7.00	6.30 to 7.00	< 6.30	
N#CCOc1ccc(CC(=O)N2CCN(c3ncnc4[nH]ccc34)CC23CC3)cc1 [Example 69, (4-{2-Oxo-2-[7-(7H-pyrrolo[2,3-d]pyrimidin-4-yl)-4,7-diaza-spiro[2.5]oct-4-yl]-ethyl}-phenoxy)-acetonitrile]	> 7.00	> 7.00	> 7.00	< 6.30	
Cc1ccc(C(=O)N2CCN(c3ncnc4[nH]ccc34)CC23CC3)s1 [Example 91, (5-Methyl-thiophen-2-yl)-[7-(7H-pyrrolo[2,3-d]pyrimidin-4-yl)-4,7-diaza-spiro[2.5]oct-4-yl]-methanone]	> 7.00	> 7.00	> 7.00	> 7.00	
O=C(c1cc2cccc(F)c2[nH]1)N1CCN(c2ncnc3[nH]ccc23)CC12CC2 [Example 362, (7-Fluoro-1H-indol-2-yl)-[7-(7H-pyrrolo[2,3-d]pyrimidin-4-yl)-4,7-diaza-spiro[2.5]oct-4-yl]-methanone]					pEC50 [1, 9]: > 7.00; pEC50 [2, 10]: > 7.00; pEC50 [3, 11]: > 7.00; pEC50 [4, 12]: 6.30 to 7.00
COC(=O)c1cc2c(N3CCN(C(=O)Cc4cccc(CC#N)c4)C4(CC4)C3)ncnc2[nH]1 [Example 121, 4-{4-[2-(3-Cyanomethyl-phenyl)-acetyl]-4,7-diaza-spiro[2.5]oct-7-yl}-7H-pyrrolo[2,3-d]pyrimidine-6-carboxylic acid methyl ester]	< 6.30	< 6.30	< 6.30	< 6.30	
CC(=O)N1CCCC1C(=O)N1CCN(c2ncnc3[nH]ccc23)CC12CC2 (stereo not drawn) [Example 50, 1-{2-[7-(7H-Pyrrolo[2,3-d]pyrimidin-4-yl)-4,7-diazaspiro[2.5]octane-4-carbonyl]pyrrolidin-1-yl}ethanone]	< 6.30	< 6.30	< 6.30	< 6.30	
